Entries after “also recorded” stand apart in the source; their conditions may differ.
What was measured:
[1] = test system: collagen-induced arthritis; experiment: Mouse collagen-induced arthritis model; type: in vivo; details: DBA/1J mice, 30 and 60 mg/kg orally twice a day
Experimental: Effect in Mouse Collagen-Induced Arthritis Model
Incomplete Freund's Adjuvant (Chondrex, Inc., #7002) supplemented with M. Tuberculosis H37 Ra, Desiccated (Beckton Dickinson and Company, #231141) at 2.5 mg/mL and Bovine Type II Collagen, 2 mg/mL Solution (Chondrex, Inc., #20022) were mixed in a 1:1 ratio to form an emulsion.
Three groups of DBA/1J mice (10 animals/group) (6-week old, male) received 0.1 mL per animal of the emulsion which was given in small portions on Day 0 and Day 21 by intradermal injection at the base of the tail, thereby accomplishing the immunization. The solvent or the test compound solution was given twice a day orally every day from Day 18 to Day 36 (test compound doses in the respective groups: 0 mg/kg, 30 mg/kg, 60 mg/kg). The treatment solution was prepared with the similar solvent in the similar manner as Test Example 4.
After the boost on Day 21, the state of the arthritis onset in each extremity was scored visually once in 2 or 3 days according to the criteria shown in Table 7. The scores of all four extremities were summed up on each mouse basis, and the mean value of 10 animals in each group was represented as an arthritis score (normal “0” up to maximum “16”).

[2] = test system: BCR signal in the Ramos cells; experiment: Inhibition test on the change of Ramos intracellular calcium ion (anti-IgM BCR stimulation); type: cell-based; details: 0.003-1 μM, anti-IgM 2.0 μg/mL (FIG. 1)
Experimental: Inhibition Test on the Change of Ramos Intracellular Calcium Ion
The intracellular BTK inhibition by the compounds of the invention was verified by measuring the effects of the compounds of the invention on “anti-IgM antibody BCR stimulation-induced intracellular calcium influx”.
(Addition of Cell Suspension and Calcium Indicator)
One day before measurement, the Ramos cells were cultured after suspended again at a cell density of 1.0×10^6 cells/mL in a fresh growth medium (growth medium as used in Test Example 2), and the cells were recovered next day by centrifugation and washed with RPMI-1640 medium supplemented with 5% penicillin-streptomycin (Nacalai Tesque, Inc.) (Medium 1). These cells were suspended again at a cell density of 2.0×10^6 cells/mL in RPMI-1640 medium supplemented with 1% Ultra Low IgG FBS (GIBCO, #16250) and 5% penicillin-streptomycin (Nacalai Tesque, Inc.) (Medium 2), and thereafter each 100 μL of the cell suspension was added to each well of a poly lysine-coated microplate (BD BioCoat™, #356692), centrifuged (700 rpm, 3 minutes) and then incubated for 1 hour in a 5% CO2 incubator at 37° C. […]
Concentration of the Ramos intracellular calcium ion was measured as a fluorescent intensity of the calcium indicator Fluo-8NW using a microplate reader (SynergyH1) (Ex/Em=490/525 nm). […]

BTK = molecular target: T1, BTK (Homo sapiens, UniProt Q06187); experiment: Intracellular BTK auto-phosphorylation activity inhibition test in Ramos cells; type: cell-based; details: test compound 0.3 μM, anti-IgM stimulation, pY223, read-out: BTK Phosphorylation inhibiting activity
T1 construct: endogenous in cells; host or cells: Ramos cells (2G6.4C10, ATCC No. CRL-1923)
T1 sequence (Q06187 whole entry): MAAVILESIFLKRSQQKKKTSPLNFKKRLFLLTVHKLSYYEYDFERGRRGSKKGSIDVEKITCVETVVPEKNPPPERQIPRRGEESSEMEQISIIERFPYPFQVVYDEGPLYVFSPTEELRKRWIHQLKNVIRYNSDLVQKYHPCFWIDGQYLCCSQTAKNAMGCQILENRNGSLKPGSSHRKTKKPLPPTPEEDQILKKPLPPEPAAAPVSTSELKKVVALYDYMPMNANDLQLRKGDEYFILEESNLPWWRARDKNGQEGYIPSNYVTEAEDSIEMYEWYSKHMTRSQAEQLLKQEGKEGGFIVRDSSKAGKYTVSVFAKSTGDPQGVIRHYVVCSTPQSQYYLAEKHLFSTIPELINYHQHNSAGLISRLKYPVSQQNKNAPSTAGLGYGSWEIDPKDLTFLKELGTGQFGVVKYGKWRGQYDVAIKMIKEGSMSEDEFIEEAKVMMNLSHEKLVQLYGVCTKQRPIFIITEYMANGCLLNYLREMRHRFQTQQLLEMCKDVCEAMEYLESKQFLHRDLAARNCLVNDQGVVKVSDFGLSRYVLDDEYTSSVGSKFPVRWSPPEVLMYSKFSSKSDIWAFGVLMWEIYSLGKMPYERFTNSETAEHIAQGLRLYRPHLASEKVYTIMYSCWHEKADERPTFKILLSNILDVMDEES
Experimental: Intracellular BTK Auto-Phosphorylation Activity Inhibition Test
(Culture of Cells to be Used)
Ramos cells (2G6.4C10, ATCC No. CRL-1923) were cultured in a T75 flask containing RPMI-1640 medium (GIBCO, #A10491-01) supplemented with 10% FBS (AusGene) and 5% penicillin-streptomycin (Nacalai Tesque, Inc.) (hereinafter referred to as growth medium) in a 5% CO2 incubator.
(Addition of the Compound to be Tested)
The cultured Ramos cells were diluted to a cell density of 7.5×10^6 cells/mL with a serum-free RPMI-1640 (hereinafter referred to as medium) and kept at 37° C. for 45 minutes. The cell suspension was dispensed in 1 mL aliquots into 2.0 mL tubes. […]
To the pellets obtained by recovering the cells via centrifugation, 100 μL of a lysis buffer [RIPA Buffer(×1) (Cell Signaling Technology, Inc.) supplemented with 1% Phosphatase inhibitor Cacktail 3 (Sigma Corporation, No. P0044), 1% Phosphatase inhibitor Cacktail (Nacalai Tesque, Inc., No. 07575) and 1 mM phenylmethylsulfonyl fluoride (PMSF)] was added and stirred gently and then allowed to stand for 10 minutes. The supernatant was recovered by centrifugation (15,000 rpm, 15 minutes) and the protein level was quantified. […]

[3] = test system: passive cutaneous anaphylaxis reaction (PCA reaction); experiment: Passive cutaneous anaphylaxis reaction in mouse; type: in vivo; details: ICR mouse, oral, 3.0 mg/mL at 10 mL/kg, vs solvent group (FIG. 2)
Text: Test of Passive Cutaneous Anaphylaxis Reaction in Mouse
Since BTK plays an important role in FcεRI signal transmission in a mast cell, it was investigated whether a mast cell-involving immediate allergic reaction, namely, passive cutaneous anaphylaxis reaction (PCA reaction), which is an immediate allergic reaction involving mast cell, was inhibited by the administration of the compound.
(Preparation of Test Compound Solution)
DMSO, polyethylene glycol 400 (PEG#400, Nacalai Tesque, Inc. #28215-95), and 30% (w/v) hydroxypropyl-β-cyclodextrin aqueous solution (HP-β-CD, Sigma Corporation, #332607-500) were successively added to the test compound in this order, and mixed thoroughly to prepare a test compound solution (solvent composition: 5% solution of test compound in DMSO, 30% PEG#400, 65% HP-β-CD [30% (w/v) aqueous solution]). In the solvent control group, a DMSO solution was used instead of the solution of the test compound in DMSO.
An anti DNP-IgE monoclonal antibody (50 μg/mL, Santa Cruz Biotechnology, Inc., #sc-69695) was intradermally administered to both auricles in an ICR mouse under systemic anesthesia (10 μL/site). […] The absorbance of the resultant filtrate at 620 nm was measured, and used as an index of the dye leakage level. […]

[4] = test system: collagen-induced arthritis; experiment: Rat collagen-induced arthritis model; type: in vivo; details: Lewis rat, 30 and 60 mg/kg orally twice a day
Experimental: Effect in Rat Collagen-Induced Arthritis Model
Incomplete Freund's Adjuvant (Sigma-Aldrich, #F5506) and Bovine Type II Collagen, 4 mg/mL Solution (Sichuan University, Lot.08H0497) were mixed in a 1:1 ratio to form an emulsion. Three groups of Lewis rat (10 animals/group) (5-6 week old, female) received 0.5 mL per animal of the emulsion which was given in small portions on Day 0 and Day 7 by intradermal injection at 3 sites, one site at the base of the tail (0.1 mL), and the rest of two sites (0.2 mL/site) were on the back of the rat near to the base of the tail, thereby accomplishing the immunization. The solvent or the test compound solution was given twice a day orally every day from Day 0 to Day 20 (test compound doses in the respective groups: 0 mg/kg, 30 mg/kg, 60 mg/kg). The treatment solution was prepared with the similar solvent in the similar manner as Test Example 4.
After the boost on Day 7, the state of the arthritis onset in each extremity was scored visually twice in a week according to the criteria shown in Table 8. The scores of all four extremities were summed up on each rat basis, and the mean value of 10 animals in each group was represented as an arthritis score (normal “0” up to maximum “16”).

In the case of `Cn1cc(Nc2nc(N)nc(-c3cccc(-n4ccc5cc(C6CC6)cc(F)c5c4=O)c3CO)n2)cn1` [Example 1, 2-(3-{4-Amino-6-[(1-methyl-1H-pyrazol-4-yl)amino]-1,3,5-triazin-2-yl}-2-(hydroxymethyl)phenyl)-6-cyclopropyl-8-fluoroisoquinolin-1(2H)-one], the “Toxic signs such as weight loss” value ([1]; Day 18 to Day 36) is reported as “able to circumvent any toxic signs such as weight loss”, the “Inhibition of onset of arthritis (arthritis score)” value ([1]; Day 18 to Day 36 (FIG. 3)) is reported as “inhibited the onset of the arthritis in a dose dependent manner” and the “Inhibition of change of intracellular calcium ion induced by BCR-stimulation” value [2] is reported as “in a concentration-dependent manner from a low concentration; also recorded: inhibits the BCR signal in the Ramos cells in a concentration dependent manner”. For the same molecule, the inhibition at 0.3 µM (BTK) was ≥ 70%, the “Inhibition of leakage of the dye into the auricles (PCA reaction)” value [3] was “inhibited the leakage of the dye in blood into the auricles significantly” and the “Toxic signs such as weight loss” value ([4]; Day 0 to Day 20) was “able to circumvent any toxic signs such as weight loss”. For the same molecule, the “Inhibition of onset of arthritis (arthritis score)” value ([4]; Day 0 to Day 20 (FIG. 4)) was “inhibited the onset of the arthritis in a dose dependent manner”.
In the case of `Cn1cc(Nc2nc(N)nc(-c3cccc(-n4ccc5cc(C6CC6)cc(F)c5c4=O)c3CO)n2)cc1C#N` [Example 2, 4-({4-Amino-6-[3-(6-cyclopropyl-8-fluoro-1-oxoisoquinolin-2(1H)-yl)-2-(hydroxymethyl)phenyl]-1,3,5-triazin-2-yl}amino)-1-methyl-1H-pyrrole-2-carbonitrile], the inhibition at 0.3 µM (BTK) is reported as ≥ 70%.

Source: patent US9656995B2, “Triazine derivative” (Carna Biosciences, Inc., priority 2013, dated 2017)
